The record followed here is ChEMBL document CHEMBL1201862, “PubChem BioAssay data set” (2004).

The test system of one assay is HeLa. Put plainly: HeLa cell cytotoxicity, dose response, cytotoxicity control for MITF activator project, CellTiter-Glo luminescence, cherry-pick samples (AID 540259). Conditions: Homo sapiens. It is filed as functional, cell-based.
Assay [1] is described as follows: Luminescence Cell-Based Dose Response to Identify Activators of 5'UTR Stem-Loop Driven Prion Protein mRNA Translation in H4-C Neuroglioblastoma Cells. [Related pubchem assays: 1829 (Project Summary), 1814 (Primary HTS)]. It is filed as functional.
Assay [2] can be described thus: Luminescence Cell-Based Dose Response HTS to Identify Activators of Luciferase Translation or Activity in H4 […] Cells. [Related pubchem assays: 1829 (Project Summary), 1814 (Primary HTS)]. It is filed as functional.
Another assay deals with H4. Put plainly: Luminescence Cell-Based Dose Response HTS to Identify Activators of 5'UTR Stem-Loop Driven Prion Protein mRNA Translation in H4 Neuroglioblastoma Cells. [Related pubchem assays: 1829 (Project Summary), 1814 (Primary HTS)]. It is filed as functional. Conditions: Homo sapiens.
Assay [3] in a line: Luminescence Cell-Based Dose Response to Identify Activators of Luciferase Translation or Activity in H4-C Neuroglioblastoma Cells. [Related pubchem assays: 1829 (Project Summary), 1814 (Primary HTS)]. The assay is classed as functional.
Assay [4] is described as follows: Luminescence Cell-Based Dose Confirmation to Identify Activators of 5'UTR Stem-Loop Driven Alpha-Synuclein mRNA Translation in H4 Neuroglioblastoma Cells. [Related pubchem assays: 1829 (Project Summary), 1814 (Primary HTS)]. The assay is classed as functional.
The next assay relates to HEK293. Description: cells. It is filed as functional, cell-based. Conditions: Homo sapiens.
Assay [5] deals with T1, Nuclear receptor subfamily 0 group B member 1 (Homo sapiens, UniProt P51843).
T1 sequence (P51843 whole entry): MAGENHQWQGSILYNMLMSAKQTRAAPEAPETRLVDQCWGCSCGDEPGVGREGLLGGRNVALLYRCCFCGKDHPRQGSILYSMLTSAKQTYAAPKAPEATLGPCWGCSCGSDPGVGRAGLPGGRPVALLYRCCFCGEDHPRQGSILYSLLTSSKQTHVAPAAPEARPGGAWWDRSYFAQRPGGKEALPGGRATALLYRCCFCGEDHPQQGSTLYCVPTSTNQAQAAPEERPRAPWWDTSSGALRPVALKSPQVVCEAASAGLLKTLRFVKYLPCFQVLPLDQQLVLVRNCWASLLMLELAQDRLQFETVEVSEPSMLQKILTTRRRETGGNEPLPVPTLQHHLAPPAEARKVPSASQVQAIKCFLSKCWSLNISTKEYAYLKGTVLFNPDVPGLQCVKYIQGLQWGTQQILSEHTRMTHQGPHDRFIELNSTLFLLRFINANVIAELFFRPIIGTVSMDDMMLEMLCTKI
Description: Luminescence-based cell-based high throughput dose response assay for inhibitors of the orphan nuclear receptor subfamily 0, group B, member 1 (DAX1; NR0B1). [Related pubchem assays (depositor defined):AID504766, AID504790]. The assay is classed as functional.

For assay [6], the target named is Dual specificity tyrosine-phosphorylation-regulated kinase 1A (Rattus norvegicus, UniProt Q63470). It is filed as biochemical, Homo sapiens.
For assay [7], the target named is Beta-2 adrenergic receptor (Homo sapiens, UniProt P07550). Put plainly: beta2AR agonists driving receptor internalization, dose response, cell-based, FAP fluorogen, flow cytometry, cherry pick 1 (AID 588763). It is filed as functional. For orientation: A flow cytometer gives signals particle by particle.
The target of assay [8] is T2, Oxysterols receptor LXR-beta (Homo sapiens, UniProt P55055).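 Note: Cell-based luminescence dose-response assay of agonist activity at LXR, run as a confirmatory counterscreen to a daf-12 agonist screen; HEK293 cells with Gal4-LXR fusion and GAL4-driven luciferase reporter; agonist potency from rising luciferase signal of a Gal4-LXR reporter.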
T2 sequence (P55055 whole entry): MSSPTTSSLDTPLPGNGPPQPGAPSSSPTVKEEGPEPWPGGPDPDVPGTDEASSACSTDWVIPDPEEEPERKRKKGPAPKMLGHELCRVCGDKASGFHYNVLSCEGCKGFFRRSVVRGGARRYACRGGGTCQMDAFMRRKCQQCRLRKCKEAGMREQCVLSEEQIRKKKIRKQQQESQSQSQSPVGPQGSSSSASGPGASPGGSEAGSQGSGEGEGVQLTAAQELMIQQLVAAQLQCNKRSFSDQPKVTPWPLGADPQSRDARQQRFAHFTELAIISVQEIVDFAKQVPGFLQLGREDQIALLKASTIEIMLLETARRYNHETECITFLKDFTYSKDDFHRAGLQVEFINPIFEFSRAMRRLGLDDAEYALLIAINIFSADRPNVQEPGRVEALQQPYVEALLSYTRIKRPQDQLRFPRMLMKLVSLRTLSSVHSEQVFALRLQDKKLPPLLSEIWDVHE
The assay is classed as functional, cell-based.

Assay [9] in a line: cells.
The target of the next assay is T3, Hexokinase-1 (Homo sapiens, UniProt P19367).
T3 sequence (P19367 whole entry): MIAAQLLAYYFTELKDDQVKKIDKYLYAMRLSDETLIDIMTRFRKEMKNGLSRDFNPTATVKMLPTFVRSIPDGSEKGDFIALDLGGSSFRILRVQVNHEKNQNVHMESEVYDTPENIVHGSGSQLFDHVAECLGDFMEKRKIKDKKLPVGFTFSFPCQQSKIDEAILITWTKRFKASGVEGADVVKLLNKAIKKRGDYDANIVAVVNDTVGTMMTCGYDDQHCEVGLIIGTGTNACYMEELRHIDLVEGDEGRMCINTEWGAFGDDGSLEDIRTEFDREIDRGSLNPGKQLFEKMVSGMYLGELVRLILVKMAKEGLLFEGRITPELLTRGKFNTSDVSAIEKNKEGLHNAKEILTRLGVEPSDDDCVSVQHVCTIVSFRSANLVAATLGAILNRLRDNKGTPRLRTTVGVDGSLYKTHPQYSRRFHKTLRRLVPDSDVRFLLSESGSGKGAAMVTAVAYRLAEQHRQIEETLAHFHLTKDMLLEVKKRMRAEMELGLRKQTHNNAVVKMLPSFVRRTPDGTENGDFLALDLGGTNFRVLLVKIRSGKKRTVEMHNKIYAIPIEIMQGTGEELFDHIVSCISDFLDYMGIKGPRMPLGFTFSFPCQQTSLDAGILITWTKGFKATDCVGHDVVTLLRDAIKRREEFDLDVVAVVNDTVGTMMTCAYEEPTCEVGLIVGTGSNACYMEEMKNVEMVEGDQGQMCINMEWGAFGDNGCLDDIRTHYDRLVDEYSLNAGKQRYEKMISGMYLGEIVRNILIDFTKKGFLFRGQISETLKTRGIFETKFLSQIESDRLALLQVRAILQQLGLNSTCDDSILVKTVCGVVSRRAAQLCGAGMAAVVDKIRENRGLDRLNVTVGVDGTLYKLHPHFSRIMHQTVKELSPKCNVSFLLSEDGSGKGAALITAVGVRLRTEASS
Put plainly: HK1 enzyme inhibition by HKDC1 hits, SAR follow-up, selectivity assay for HKDC1 inhibitor project, biochemical, set 2, resazurin fluorescence coupled readout (AID 588356). The assay is classed as functional.

For another assay, the target named is T4, Hexokinase HKDC1 (Homo sapiens, UniProt Q2TB90).
T4 sequence (Q2TB90 whole entry): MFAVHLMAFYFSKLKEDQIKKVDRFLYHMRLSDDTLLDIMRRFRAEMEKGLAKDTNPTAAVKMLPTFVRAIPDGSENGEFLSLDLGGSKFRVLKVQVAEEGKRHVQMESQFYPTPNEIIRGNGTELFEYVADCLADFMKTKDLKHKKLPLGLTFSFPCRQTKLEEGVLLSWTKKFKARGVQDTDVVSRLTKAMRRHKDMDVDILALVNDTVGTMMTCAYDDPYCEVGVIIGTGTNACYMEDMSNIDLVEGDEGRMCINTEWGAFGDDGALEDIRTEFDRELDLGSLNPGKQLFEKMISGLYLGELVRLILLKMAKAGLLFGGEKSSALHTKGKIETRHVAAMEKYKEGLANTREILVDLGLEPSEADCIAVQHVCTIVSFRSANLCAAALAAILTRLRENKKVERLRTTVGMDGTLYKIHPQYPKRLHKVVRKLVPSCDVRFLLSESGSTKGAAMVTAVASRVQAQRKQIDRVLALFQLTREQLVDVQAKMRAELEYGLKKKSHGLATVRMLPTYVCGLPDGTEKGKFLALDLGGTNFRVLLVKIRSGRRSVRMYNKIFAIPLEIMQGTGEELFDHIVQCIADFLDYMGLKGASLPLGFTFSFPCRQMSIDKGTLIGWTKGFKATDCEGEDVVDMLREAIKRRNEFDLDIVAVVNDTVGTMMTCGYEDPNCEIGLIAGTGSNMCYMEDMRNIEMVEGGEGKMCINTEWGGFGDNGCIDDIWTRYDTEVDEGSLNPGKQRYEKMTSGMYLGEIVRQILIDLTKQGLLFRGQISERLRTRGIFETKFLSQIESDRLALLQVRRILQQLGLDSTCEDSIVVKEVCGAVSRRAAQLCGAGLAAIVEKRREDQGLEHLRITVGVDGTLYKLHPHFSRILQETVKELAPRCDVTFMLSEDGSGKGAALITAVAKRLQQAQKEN
Description: HKDC1 hexokinase inhibitors, SAR follow-up, biochemical, set 2 (AID 588355). The assay is classed as functional.

For assay [10], the target named is T5, Short transient receptor potential channel 4 (Mus musculus, UniProt Q9QUQ5).
T5 sequence (Q9QUQ5 whole entry): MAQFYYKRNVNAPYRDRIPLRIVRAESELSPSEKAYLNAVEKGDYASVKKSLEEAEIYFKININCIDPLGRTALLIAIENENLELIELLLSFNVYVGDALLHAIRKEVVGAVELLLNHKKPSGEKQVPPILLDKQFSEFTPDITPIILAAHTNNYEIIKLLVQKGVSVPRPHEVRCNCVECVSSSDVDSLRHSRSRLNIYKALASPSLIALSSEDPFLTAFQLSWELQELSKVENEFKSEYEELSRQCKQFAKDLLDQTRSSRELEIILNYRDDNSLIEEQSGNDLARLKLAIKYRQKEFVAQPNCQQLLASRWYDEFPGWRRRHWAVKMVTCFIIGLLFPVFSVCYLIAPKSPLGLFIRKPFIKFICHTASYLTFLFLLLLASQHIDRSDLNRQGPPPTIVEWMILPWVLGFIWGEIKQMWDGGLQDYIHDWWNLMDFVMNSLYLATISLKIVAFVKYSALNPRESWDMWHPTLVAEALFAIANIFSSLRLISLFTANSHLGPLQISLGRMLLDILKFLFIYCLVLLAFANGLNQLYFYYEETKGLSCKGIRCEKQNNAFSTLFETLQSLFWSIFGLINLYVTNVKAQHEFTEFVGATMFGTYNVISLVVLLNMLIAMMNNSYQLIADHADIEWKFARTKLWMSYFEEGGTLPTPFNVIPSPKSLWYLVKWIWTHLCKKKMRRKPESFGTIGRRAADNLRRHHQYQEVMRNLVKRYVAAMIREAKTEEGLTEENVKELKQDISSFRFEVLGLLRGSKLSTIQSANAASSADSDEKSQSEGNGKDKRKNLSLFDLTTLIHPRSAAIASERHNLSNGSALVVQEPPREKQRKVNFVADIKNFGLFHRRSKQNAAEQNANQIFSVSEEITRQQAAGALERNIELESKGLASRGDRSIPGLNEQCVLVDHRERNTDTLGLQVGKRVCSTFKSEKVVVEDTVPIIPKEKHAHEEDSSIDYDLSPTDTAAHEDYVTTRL
Description: mouse TRPC4 channel inhibitors, dose response, cell-based, HEK293 TRPC4/mu-opioid, Fluo-4 calcium (AID 434942).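 Note: potency of inhibitors blocking the TRPC4 calcium response.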 It is filed as functional.

Assay [11] deals with T5, Short transient receptor potential channel 4. Put plainly: mouse TRPC4 channel activators, dose response, cell-based, HEK293 TRPC4/mu-opioid, Fluo-4 calcium (AID 434937). It is filed as functional.
Assay [12] can be described thus: HEp-2 cell cytotoxicity, dose response, cytotoxicity control for RSV inhibitor project, HTS (AID 2410). The assay is classed as functional. Conditions: human respiratory syncytial virus.
In assay [13] the test system is Vero. Put plainly: cells. It is filed as functional, cell-based. Conditions: Chlorocebus sabaeus.
Assay [14] relates to Vero. Put plainly: cells. The assay is classed as functional. Conditions: Chlorocebus sabaeus.
A short description of assay [15]: cells. This is another data set of the same source.

Each structure is given as a SMILES string. The source made the active and inactive calls. Where only a bound is given, the exact number is not on record here.

Chain of Beta-2 adrenergic receptor (P07550 whole entry, the tested form may be a part): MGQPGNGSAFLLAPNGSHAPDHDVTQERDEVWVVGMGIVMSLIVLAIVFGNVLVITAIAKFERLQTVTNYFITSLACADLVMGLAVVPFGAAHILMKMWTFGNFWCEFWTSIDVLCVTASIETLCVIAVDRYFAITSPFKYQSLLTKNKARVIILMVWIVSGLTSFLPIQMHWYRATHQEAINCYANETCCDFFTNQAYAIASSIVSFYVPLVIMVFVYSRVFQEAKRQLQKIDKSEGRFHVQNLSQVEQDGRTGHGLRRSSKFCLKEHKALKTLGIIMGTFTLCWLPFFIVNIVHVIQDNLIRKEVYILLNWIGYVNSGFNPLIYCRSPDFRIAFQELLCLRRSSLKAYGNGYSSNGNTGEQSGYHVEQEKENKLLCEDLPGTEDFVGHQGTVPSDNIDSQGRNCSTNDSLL

A word on the AC50: it is the midpoint of the concentration-response curve, whichever way the signal moves. Consider `COc1ccccc1OCc1cc(-c2ccccc2)no1`, for which, in the assay on HeLa, the AC50 was 48 µM (active).
What is called EC50 is the concentration at which the effect is half-maximal. Usually IC50 stands for the concentration that inhibits the measured activity by half. With `CC(C)c1cc(C(=O)NCCc2ccccc2)no1`, the EC50 in [1] was 1.54 µM (active); in assay [2], < 0.1 µM (inconclusive); in the assay on H4, 7.28 µM (active); in assay [3], 0.375 µM (active); in assay [4], 1.06 µM (active). In addition, the IC50 (with HEK293; in assay [5]) was > 67.5 µM (inactive) each time.
As for `O=c1cc(-c2ccccc2)oc2ccc(O)cc12` [6-HYDROXYFLAVONE], the IC50 (with HEK293; in [5]) was > 67.6 µM (inactive) each time.
`COc1ccc(O)c(-c2cc(-c3ccccc3Cl)n[nH]2)c1`: the AC50 in [6] is 2.77 µM (active).
As to `Cn1c(=N)n(CC(=O)c2ccc(Br)cc2)c2ccccc21`, the values for the EC50 (in [7]; in assay [8]; in the assay “cells [9]”) were 15.6 µM (inactive), > 67.5 µM (inactive) and > 67.5 µM (inactive), respectively.
Consider `Cc1ccccc1N1C(=O)c2ccccc2C1Nc1ccc(F)cc1` (stereo not given), for which the IC50 on Hexokinase-1 and on Hexokinase HKDC1 was > 80 µM (inactive) in each case.
With `O=c1c2cc(F)ccc2nc(/C=C/c2cccnc2)n1Cc1ccccc1`, the IC50 at Hexokinase-1 and at Hexokinase HKDC1 was > 80 µM (inactive) each time.
Consider `CN(C)C(CNC(=O)c1cc2ccccc2oc1=O)c1ccccc1` (stereo not given), for which the EC50 in [10] was 0.149 µM (active); in [11] it was 0.299 µM (active). Further, in the assay with HeLa, the AC50 was 240 µM (active).
As a reminder, the CC50 is the concentration giving 50% cytotoxicity. As to `COc1cccc(NC(=O)[C@H](Cc2c[nH]c3ccccc23)NC(=O)[C@@H]2Cc3ccccc3CN2)c1`, the cytotoxic concentration (CC50) in assay [12] was 17.1 µM (active); in the assay with Vero [14], > 25 µM (active). In addition, the IC50 in the assay with Vero [13] is 9.61 µM (active); in the assay “cells [15]” it was 7.96 µM (active).
